Where “and” joins values, the source holds several entries; their conditions need not be identical. Identical values can stand only once.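 Growth conditions: 96-well plates. Treatment: test compound, 48 hours, 5 concentrations. Analysis: linear interpolation between bracketing concentrations; unreached endpoints set to highest concentration. Abbreviation: GI50, concentration required for 50% inhibition of growth. TGI denotes the concentration required for complete inhibition of growth.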 Calls of active or inactive are those of the source. Cut-off read from the data, not from the text of the source: active = GI50 below about 0.43 µM; inactive = the rest.
Tests used:
Assay in all cases: NCI anticancer screen, dose series, 48 h
MDA-N = test system: MDA-N
DLD-1 colon = test system: DLD-1 colon
DMS 114 small cell lung = test system: DMS 114 small cell lung
DMS 273 small cell lung = test system: DMS 273 small cell lung
LXFL 529 NSCLC = test system: LXFL 529 NSCLC
M19-MEL melanoma = test system: M19-MEL melanoma
SNB-78 CNS = test system: SNB-78 CNS
XF 498 CNS = test system: XF 498 CNS
RXF-631 renal = test system: RXF-631 renal

Compound: CC(CO)[C@H]1OC(=O)C=C2[C@@]13O[C@@H]3[C@H]1OC(=O)[C@@]3(C)[C@H]4O[C@H]4C[C@@]2(C)[C@@H]13 (stereo not given in full)
- TGI (MDA-N): 14 µM

Compound: CCN(CC)c1ccc(NC(=S)NN(C)C)cc1
- TGI (MDA-N): > 10 µM

Compound: CC1(C)C(=O)C(O)=CC2C1=CCC1C2(C)C(=O)CC2(C)C(C(C)(O)C(=O)CC(O)C(C)(C)O)C(O)CC12C (stereo not given)
- TGI (DLD-1 colon): > 74.6 µM
- TGI (DMS 114 small cell lung): 45.9 µM
- TGI (DMS 273 small cell lung): 9.61 µM
- TGI (LXFL 529 NSCLC): 17.4 µM
- TGI (M19-MEL melanoma): > 97.2 µM
- TGI (SNB-78 CNS): 25.9 µM
- TGI (XF 498 CNS): 6.34 µM

Compound: Cc1nc(SCC(N)=O)c2sc(=S)n(-c3ccccc3)c2n1
- TGI (MDA-N): > 10 µM

Compound: CC[N+]1(C)CCC(O)(c2ccc(C)cc2)C(C(=O)c2ccc(C)cc2)C1 (stereo not given)
- TGI (MDA-N): > 100 µM

Compound: O=C(O)c1cc[c]([Hg][S]c2ncnc3nc[nH]c23)cc1
- GI50 (MDA-N): 4.84 µM
- TGI (MDA-N): 20.3 µM

Compound: COC(=O)C1=CCON(c2ccccc2)C1c1ccccc1 (stereo not given)
- TGI (DLD-1 colon): > 100 µM
- TGI (DMS 114 small cell lung): > 100 µM
- TGI (DMS 273 small cell lung): > 100 µM
- TGI (LXFL 529 NSCLC): > 100 µM
- TGI (M19-MEL melanoma): > 100 µM
- TGI (XF 498 CNS): > 100 µM

Compound: O=c1oc2ccccc2c(O)c1C=NC(=S)c1ccncc1
- TGI (MDA-N): > 100 µM

Compound: CC(C)N(C(C)C)[PH+]1O[PH+](N(C(C)C)C(C)C)O[PH+](N(C(C)C)C(C)C)O[PH+](N(C(C)C)C(C)C)O[PH+](N(C(C)C)C(C)C)O1.[C-]#[O+].[C-]#[O+].[C-]#[O+].[C-]#[O+].[C-]#[O+].[C-]#[O+].[C-]#[O+].[Cr].[Cr] (stereo not given)
- GI50 (DLD-1 colon): > 100 µM
- TGI (DLD-1 colon): > 100 µM
- GI50 (DMS 114 small cell lung): > 100 µM
- TGI (DMS 114 small cell lung): > 100 µM
- GI50 (DMS 273 small cell lung): > 100 µM
- TGI (DMS 273 small cell lung): > 100 µM
- GI50 (LXFL 529 NSCLC): > 100 µM
- TGI (LXFL 529 NSCLC): > 100 µM
- GI50 (M19-MEL melanoma): > 100 µM
- TGI (M19-MEL melanoma): > 100 µM
- GI50 (SNB-78 CNS): > 100 µM
- TGI (SNB-78 CNS): > 100 µM
- GI50 (XF 498 CNS): > 100 µM
- TGI (XF 498 CNS): > 100 µM

Compound: Cc1c(C)c2cc3c(=O)ccoc3c(C)c2oc1=O
- TGI (DMS 114 small cell lung): > 100 µM
- TGI (LXFL 529 NSCLC): > 100 µM
- TGI (M19-MEL melanoma): > 100 µM
- TGI (RXF-631 renal): > 100 µM
- TGI (SNB-78 CNS): > 100 µM

Compound: Clc1ccc(COC(Cn2ccnc2)c2ccc(Cl)cc2Cl)cc1 (stereo not given)
- TGI (MDA-N): 27.4 µM and 25.4 µM

Compound: O=C(CCc1nc(=S)[nH][nH]1)NC12CC3CC(CC(C3)C1)C2
- TGI (DLD-1 colon): > 100 µM
- TGI (DMS 114 small cell lung): > 100 µM
- TGI (DMS 273 small cell lung): > 100 µM
- TGI (LXFL 529 NSCLC): > 100 µM
- TGI (M19-MEL melanoma): > 100 µM
- TGI (RXF-631 renal): > 100 µM
- TGI (SNB-78 CNS): > 100 µM
- TGI (XF 498 CNS): > 100 µM

Compound: CCc1nc(N)nc(N)c1-c1ccc([N+](=O)[O-])c(NCc2ccccc2)c1
- TGI (MDA-N): 34.8 µM

Compound: CC(C)N(C(=O)C12C3C4C1C1C2C3C41C(O)C(C)(C)C)C(C)C (stereo not given)
- TGI (DMS 114 small cell lung): > 50 µM
- TGI (DMS 273 small cell lung): > 50 µM
- TGI (LXFL 529 NSCLC): > 50 µM
- TGI (M19-MEL melanoma): > 50 µM
- TGI (SNB-78 CNS): > 50 µM
- TGI (XF 498 CNS): > 50 µM

Compound: CC(C)c1cccc(C(C)C)c1NC(=O)C(=O)C(C(=O)c1ccccc1-c1ccccc1)C1OC(=O)c2ccccc21 (stereo not given)
- TGI (DMS 114 small cell lung): 49.2 µM
- TGI (DMS 273 small cell lung): 60 µM
- TGI (LXFL 529 NSCLC): 34.6 µM
- TGI (M19-MEL melanoma): 63.6 µM
- TGI (SNB-78 CNS): 73.2 µM
- TGI (XF 498 CNS): 26 µM

Compound: CC(C)c1ccc2nc3ccc(C(=O)NCCN(C)C)cn3c(=O)c2c1
- TGI (MDA-N): 31.8 µM

Compound: Clc1ccccc1NN(Cc1ccccn1)c1ccccc1Cl
- TGI (MDA-N): 36 µM

Compound: CC1(C)CCC(C)(C)c2cc(C(=O)Nc3ccc(C(=O)O)cc3)ccc21
- TGI (MDA-N): > 62.8 µM

Compound: COC1/C=C/OC2(C)Oc3c(C)c(O)c4c(c3C2=O)C(=O)C=C(NC(=O)/C(C)=C\C=C\C(C)C(OC=O)C(C)C(O)C(C)C(OC(C)=O)C1C)C4=O (stereo not given)
- TGI (DLD-1 colon): 23.3 µM
- TGI (DMS 114 small cell lung): 34.6 µM
- TGI (DMS 273 small cell lung): 30.9 µM
- TGI (LXFL 529 NSCLC): 19 µM
- TGI (M19-MEL melanoma): 27.6 µM
- TGI (MDA-N): > 50.7 µM
- TGI (RXF-631 renal): 35.7 µM
- TGI (SNB-78 CNS): 44.2 µM
- TGI (XF 498 CNS): 12.8 µM

Compound: COc1ccc(C2C(Cl)C(=O)N2n2cnc3ccccc3c2=O)cc1OC (stereo not given)
- TGI (DMS 114 small cell lung): > 100 µM
- TGI (DMS 273 small cell lung): > 100 µM
- TGI (LXFL 529 NSCLC): > 100 µM
- TGI (M19-MEL melanoma): > 100 µM
- TGI (SNB-78 CNS): > 100 µM
- TGI (XF 498 CNS): > 100 µM

Compound: Clc1ccc([O][In]([O]c2ccc(Cl)cn2)[O]c2ccc(Cl)cn2)nc1
- GI50 (DLD-1 colon): > 100 µM
- TGI (DLD-1 colon): > 100 µM
- GI50 (DMS 114 small cell lung): > 100 µM
- TGI (DMS 114 small cell lung): > 100 µM
- GI50 (DMS 273 small cell lung): > 100 µM
- TGI (DMS 273 small cell lung): > 100 µM
- GI50 (M19-MEL melanoma): > 100 µM
- TGI (M19-MEL melanoma): > 100 µM
- GI50 (SNB-78 CNS): > 100 µM
- TGI (SNB-78 CNS): > 100 µM

Compound: CSc1ccc(/C=C2\CNC/C(=C\c3ccc(SC)cc3)C2=O)cc1
- GI50 (DLD-1 colon): 45.1 µM and 142 µg/mL
- TGI (DLD-1 colon): > 371 µM and 150 µg/mL
- GI50 (DMS 114 small cell lung): 54.1 µg/mL
- TGI (DMS 114 small cell lung): 132 µM and 150 µg/mL
- GI50 (DMS 273 small cell lung): 46.2 µg/mL
- TGI (DMS 273 small cell lung): 150 µg/mL
- TGI (LXFL 529 NSCLC): 68.6 µM
- TGI (RXF-631 renal): 175 µM
- GI50 (SNB-78 CNS): 28.8 µg/mL
- TGI (SNB-78 CNS): 150 µg/mL
- TGI (XF 498 CNS): 16.8 µM
- outcome (XF 498 CNS): inactive

Compound: COC(=O)c1nc(NN)[nH]c(=O)c1CCCCCc1c(C(=O)OC)[nH]c(NN)cc1=O
- TGI (DLD-1 colon): > 100 µM
- TGI (DMS 114 small cell lung): > 100 µM
- TGI (DMS 273 small cell lung): > 100 µM
- TGI (LXFL 529 NSCLC): > 100 µM
- TGI (M19-MEL melanoma): > 100 µM
- TGI (SNB-78 CNS): > 100 µM
- TGI (XF 498 CNS): > 100 µM

Compound: C=C(C)C1CC2C(C)=C(OC(C)=O)C1n1c(=O)c3cc4ccccc4cc3c(=O)n12 (stereo not given)
- TGI (DLD-1 colon): > 100 µM
- TGI (DMS 114 small cell lung): > 100 µM
- TGI (DMS 273 small cell lung): > 100 µM
- TGI (LXFL 529 NSCLC): > 100 µM
- TGI (M19-MEL melanoma): > 100 µM
- TGI (SNB-78 CNS): > 100 µM

Compound: O=C1c2ccccc2N2OC3(N4CCCC4)CCCC3C12c1ccccc1 (stereo not given)
- TGI (DLD-1 colon): > 100 µM
- TGI (DMS 114 small cell lung): > 100 µM
- TGI (DMS 273 small cell lung): > 100 µM
- TGI (LXFL 529 NSCLC): > 100 µM
- TGI (M19-MEL melanoma): > 100 µM
- TGI (SNB-78 CNS): > 100 µM
- TGI (XF 498 CNS): > 100 µM

Compound: Cc1cc2c(cc1C)NC1=C(N2)OC(c2c[nH]c3ccc(COc4ccccc4)cc23)C1=O (stereo not given)
- TGI (MDA-N): > 100 µM

Compound: COc1cc(-c2oc3ccccc3c(=O)c2O)cc(OC)c1OC
- TGI (MDA-N): > 100 µM

Compound: CN1C2CC(C#N)C1C=CC2=O (stereo not given)
- GI50 (MDA-N): 19.2 µM and 63.3 µM
- TGI (MDA-N): 43.1 µM and > 100 µM
